Measured values: PubChem BioAssay (NCI)
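Five concentrations, 48 hours, 96-well plates. At the GI50, growth is halved. TGI: concentration producing complete growth inhibition.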

What was measured:
Assay in all cases: NCI-60 cell line screen, 48 h
MALME-3M melanoma = tested on: MALME-3M melanoma
EKVX NSCLC = tested on: EKVX NSCLC
T-47D breast = tested on: T-47D breast
OVCAR-4 ovarian = tested on: OVCAR-4 ovarian
SF-268 CNS = tested on: SF-268 CNS
A549 NSCLC = tested on: A549 NSCLC
HCT-15 colon = tested on: HCT-15 colon
OVCAR-3 ovarian = tested on: OVCAR-3 ovarian
MDA-MB-231 breast = tested on: MDA-MB-231 breast
SR leukemia = tested on: SR leukemia

SMILES	GI50 (MALME-3M melanoma)	TGI (MALME-3M melanoma)	GI50 (EKVX NSCLC)	TGI (EKVX NSCLC)	GI50 (T-47D breast)	TGI (T-47D breast)	GI50 (OVCAR-4 ovarian)	TGI (OVCAR-4 ovarian)	GI50 (SF-268 CNS)	TGI (SF-268 CNS)	GI50 (A549 NSCLC)	TGI (A549 NSCLC)	GI50 (HCT-15 colon)	TGI (HCT-15 colon)	GI50 (OVCAR-3 ovarian)	TGI (OVCAR-3 ovarian)	GI50 (MDA-MB-231 breast)	TGI (MDA-MB-231 breast)	GI50 (SR leukemia)	TGI (SR leukemia)
CCCC(=O)Nc1c(I)cc(I)c(CC(CC)C(=O)O)c1I (stereo unspecified)	> 100 µM	> 100 µM	> 100 µM	> 100 µM	> 100 µM	> 100 µM	> 100 µM	> 100 µM	> 100 µM	> 100 µM	> 100 µM	> 100 µM	> 100 µM	> 100 µM	> 100 µM	> 100 µM	> 100 µM	> 100 µM	> 100 µM	> 100 µM
S=C1SCN(C2CCCCCCCCCCC2)CN1C1CCCCCCCCCCC1	–	> 100 µM	–	> 100 µM	–	> 100 µM	–	> 100 µM	–	> 100 µM	–	> 100 µM	–	> 100 µM	–	> 100 µM	–	> 100 µM	–	> 100 µM
C[C@@H]1OC(=O)NN=C1c1ccc(-c2ccc(F)cc2)c(C(F)(F)F)c1	12.5 µM	25.8 µM	–	12.4 µM	5.26 µM	25.8 µM	6.36 µM	20.6 µM	1.03 µM	21.5 µM	8.21 µM	22.8 µM	4.6 µM	17.9 µM	6.01 µM	20.3 µM	10.1 µM	24.9 µM	2.58 µM	13 µM
CCCc1n(Cc2ccc3ccccc3n2)cc[n+]1Cc1ccc2ccccc2c1	0.526 µM	2.75 µM	2.16 µM	14.9 µM	0.307 µM	5.55 µM	0.357 µM	6.59 µM	1.01 µM	10.6 µM	1.88 µM	11.8 µM	12 µM	25.4 µM	0.452 µM	1.96 µM	1.05 µM	2.86 µM	0.472 µM	3.03 µM
C[C@@]1(O)CCC[C@H]1n1c(=O)c(C(F)F)cc2cnc(NC3CCN(S(C)(=O)=O)CC3)nc21	1.29 µM	5.37 µM	1.75 µM	5.92 µM	1.29 µM	> 100 µM	1.76 µM	> 100 µM	2.07 µM	7.34 µM	1.66 µM	> 100 µM	1.74 µM	56.6 µM	–	–	1.14 µM	7.04 µM	1.96 µM	> 100 µM
CC1(C)OC2COC(c3[nH]nc4c(=O)[nH]c(=O)[nH]c34)C2O1 (stereo unspecified)	–	> 100 µM	–	> 100 µM	–	> 100 µM	–	> 100 µM	–	> 100 µM	–	> 100 µM	–	> 100 µM	–	> 100 µM	–	> 100 µM	–	> 100 µM
NC(N)=NC(N)=Nc1ccc(S(N)(=O)=O)cc1	–	> 100 µM	–	> 100 µM	–	> 100 µM	–	> 100 µM	–	> 100 µM	–	> 100 µM	–	> 100 µM	–	> 100 µM	–	> 100 µM	–	> 100 µM
C=C1C(=O)O[C@H]2[C@H]1CC/C(Cn1cc(-c3ccsc3)nn1)=C\CC[C@@]1(C)O[C@@H]21	1.61 µM	3.34 µM	2.33 µM	7.76 µM	2.03 µM	5.52 µM	2.48 µM	7.61 µM	2.53 µM	8.15 µM	8.61 µM	23.1 µM	1.11 µM	2.54 µM	1.06 µM	2.28 µM	1.75 µM	3.61 µM	0.56 µM	9.39 µM
CCC(=O)Nc1ncnc2ncn(C(=O)CC)c12	–	> 100 µM	–	> 100 µM	–	> 100 µM	–	> 100 µM	–	> 100 µM	–	> 100 µM	–	> 100 µM	–	> 100 µM	–	> 100 µM	–	> 100 µM
O=C(Nc1ccc(-n2ccc3c(NC(=O)c4ccccc4)nccc32)cc1)c1ccc(N2CCOCC2)c(C(F)(F)F)c1	5.96 µM	41.1 µM	3.9 µM	> 100 µM	2.65 µM	> 41.1 µM	7.09 µM	> 60.8 µM	0.122 µM	> 77.1 µM	0.0488 µM	4.15 µM	–	> 43.4 µM	0.254 µM	9.89 µM	4.07 µM	> 60.9 µM	< 0.0189 µM	> 100 µM
O=C(O)CNC(=O)C1NC(C(F)(F)F)(C(F)(F)F)OC1(C(F)(F)F)C(F)(F)F (stereo unspecified)	–	> 100 µM	–	> 100 µM	–	> 100 µM	–	> 100 µM	–	> 100 µM	–	> 100 µM	–	> 100 µM	–	> 100 µM	–	> 100 µM	–	> 100 µM
COC1C(O)CC(OC2CC(OC3CC(O[C@@H]4C(=O)c5c(cc6cc(OC7CC(OC8CC(O)C(O)C(C)O8)C(O)C(C)O7)c(C)c(O)c6c5O)CC4[C@H](OC)[C@@H](O)C(C)=O)OC(C)C3O)OC(C)C2O)OC1C (stereo partly specified)	0.0181 µM	1.28 µM	0.014 µM	> 33.3 µM	0.0124 µM	0.307 µM	< 0.0282 µM	> 23.9 µM	0.0155 µM	> 33.3 µM	0.00797 µM	> 33.3 µM	0.335 µM	> 33.3 µM	0.0166 µM	0.597 µM	0.051 µM	> 33.3 µM	0.00624 µM	1.65 µM
COc1ccccc1N1CCN(CCCOc2ccc(C(=O)/C=C3/C(=O)Nc4ccccc43)cc2)CC1	0.589 µM	22.9 µM	7.34 µM	41.2 µM	4.73 µM	> 73 µM	6.6 µM	51.2 µM	16.8 µM	47.3 µM	22.1 µM	> 100 µM	7.88 µM	> 68.1 µM	7.37 µM	42.3 µM	9.63 µM	37.6 µM	2.57 µM	14.4 µM
CN1CCN(Cc2ccc(NC(=O)c3cccc(C#Cc4c(N)ncc5ccc(F)cc45)c3)cc2C(F)(F)F)CC1	0.569 µM	1.35 µM	0.879 µM	1.95 µM	1.05 µM	2.65 µM	0.511 µM	1.77 µM	0.719 µM	1.58 µM	0.877 µM	1.77 µM	0.621 µM	1.41 µM	0.853 µM	1.8 µM	0.545 µM	1.21 µM	1.02 µM	2.71 µM
